For orientation: melting point means the temperature of the solid-liquid transition.

Data on 23 compounds can be found in US6720342B2, “Heterocyclic compounds and their preparation and use” (Novo Nordisk A/S, priority 1996, dated 2004).

Counter-ions that a name gives are not always drawn.

Compound `Clc1ccc(C#CCOc2nsnc2OC2CN3CCC2C3)cc1` (stereo not drawn) (as salt: oxalate) [Compound 18, Endo 3-(3-[3-(4-chlorophenyl)-2-propynyl-1-oxy]-1,2,5-thiadiazol-4-yloxy)-1-azabicyclo[2.2.1]heptane, oxalate] had a melting point of 118 to 122 °C.

Compound `C1CC(COc2nsnc2OC2CN3CCC2C3)C1` (stereo not drawn) (as salt: oxalate) [Compound 41, Endo 3-(3-cyclobutylmethyloxy-1,2,5-thiadiazol-4-yloxy)-1-azabicyclo-[2.2.1]heptane, oxalate] had a melting point of 96 to 99 °C.

In turn, `CCCSc1nsnc1OC1CN2CCC1C2` (stereo not drawn) (as salt: oxalate) [Compound 2, Endo 3-(3-propylthio-1,2,5-thiadiazol-4-yloxy)-1-azabicyclo[2.2.1]heptane, oxalate] showed a melting point of 136 to 137 °C.

As for `Fc1ccc(CSc2nsnc2OC2CN3CCC2C3)c(F)c1` (stereo not drawn) (as salt: oxalate) [Compound 33, Endo 3-(3-[2,4-difluorobenzylthio]-1,2,5-thiadiazol-4-yloxy)-1-azabicyclo-[2.2.1]heptane, oxalate], the melting point lay within 98 to 100 °C.

In the case of `COc1cccc(C#CC(C)Oc2nsnc2OC2CN3CCC2C3)c1` (stereo not drawn) (as salt: oxalate) [Compound 17, Endo 3-(3-[4-(3-methoxyphenyl)-3-butyn-2-yloxy]-1,2,5-thiadiazol-4-yloxy)-1-azabicyclo[2.2.1]heptane, oxalate], the melting point lay within 102 to 103 °C.

`C(#Cc1ccccn1)COc1nsnc1OC1CN2CCC1C2` (stereo not drawn) (as salt: oxalate) [Compound 25, Endo 3-(3-(2-pyridyl)-2-propyn-1-yloxy)-1,2,5-thiadiazol-4-yloxy)-1-azabicyclo[2.2.1]heptane, dioxalate] returned a melting point of 158 to 160 °C.

With `Fc1cccc(C#CCOc2nsnc2OC2CN3CCC2C3)c1` (stereo not drawn) (as salt: oxalate) [Compound 28, Endo 3-(3-(3-(3-fluorophenyl)-2-propyn-1-yloxy)-1,2,5-thiadiazol-4-yloxy-1-azabicyclo[2.2.1]heptane, oxalate], the melting point fell in the range of 175 to 177 °C.

On to `C(CC1CC1)Oc1nsnc1OC1CN2CCC1C2` (stereo not drawn) (as salt: oxalate) [Compound 8, Endo 3-(3-[2-cyclopropylethyl-1-oxy]-1,2,5-thiadiazol-4-yloxy)-1-azabicyclo[2.2.1]heptane, oxalate], for which the melting point lay within 132 to 133 °C.

In the case of `FC(F)(F)COc1nsnc1OC1CN2CCC1C2` (stereo not drawn) (as salt: oxalate) [Compound 40, Endo 3-(3-[2,2,2-trifluoroethyl-1-oxy]-1,2,5-thiadiazol-4-yloxy)-1-azabicyclo[2.2.1]heptane, oxalate], the melting point lay in the range of 153 to 156 °C.

Turning to `FC(F)(F)Oc1ccc(COc2nsnc2OC2CN3CCC2C3)cc1` (stereo not drawn) (as salt: oxalate) [Compound 14, Endo 3-(3-[4-trifluoromethoxybenzyloxy]-1,2,5-thiadiazol-4-yloxy)-1-azabicyclo[2.2.1]heptane, oxalate], the melting point lay in the range of 116 to 119 °C.

Regarding `COCCOc1nsnc1OC1CN2CCC1C2` (stereo not drawn) (as salt: oxalate) [Compound 13, Endo 3-(3-methoxyethoxy-1,2,5-thiadiazol-4-yloxy)-1-azabicyclo[2.2.1]heptane, oxalate], the melting point was in the range of 139 to 141 °C.

Regarding `COc1cccc(C#CCOc2nsnc2OC2CN3CCC2C3)c1` (stereo not drawn) (as salt: oxalate) [Compound 6, Endo 3-(3-[3-(3-methoxyphenyl)-2-propynyl-1-oxy]-1,2,5-thiadiazol-4-yloxy)-1-azabicyclo[2.2.1]heptane, oxalate], the melting point was 142 to 143 °C.

Take `Fc1ccc(COc2nsnc2OC2CN3CCC2C3)cc1` (stereo not drawn) (as salt: oxalate) [Compound 9, Endo 3-(3-[4-fluorobenzyloxy]-1,2,5-thiadiazol-4-yloxy)-1-azabicyclo-[2.2.1]heptane, oxalate]: the melting point is 144 to 145 °C.

For `CC=CCOc1nsnc1OC1CN2CCC1C2` (stereo not drawn) (as salt: oxalate) [Compound 10, Endo 3-(3-[2-butenyl-1-oxy]-1,2,5-thiadiazol-4-yloxy)-1-azabicyclo[2.2.1]heptane, oxalate], the melting point is 129 to 131 °C.

Consider `C(#Cc1ccoc1)COc1nsnc1OC1CN2CCC1C2` (stereo not drawn) (as salt: oxalate) [Compound 26, Endo 3-(3-(3-(3-furyl)-2-propyn-1-yloxy)-1,2,5-thiadiazol-4-yloxy)-1-azabicyclo[2.2.1]heptane, oxalate], for which the melting point was in the range of 146 to 148 °C.

`CCC(C#Cc1cccc(OC)c1)Oc1nsnc1OC1CN2CCC1C2` (stereo not drawn) (as salt: oxalate) [Compound 19, Endo 3-(3-[1-(3-methoxyphenyl)-1-pentyn-3-yloxy]-1,2,5-thiadiazol-4-yloxy)-1-azabicyclo[2.2.1]heptane, oxalate] showed a melting point of 98 to 101 °C.

Compound `CC(C)=CCOc1nsnc1OC1CN2CCC1C2` (stereo not drawn) (as salt: oxalate) [Compound 7, Endo 3-(3-[3-methyl-2-butenyl-1-oxy]-1,2,5-thiadiazol-4-yloxy)-1-azabicyclo[2.2.1]heptane, oxalate] showed a melting point of 112 to 115 °C.

The compound `FC(F)(F)CCCOc1nsnc1OC1CN2CCC1C2` (stereo not drawn) (as salt: oxalate) [Compound 15, Endo 3-(3-[4,4,4-trifluorobutyl-1-oxy]-1,2,5-thiadiazol-4-yloxy)-1-azabicyclo[2.2.1]heptane, oxalate] registered a melting point of 135 to 137 °C.

In turn, `C(#Cc1ccccc1)COc1nsnc1OC1CN2CCC1C2` (stereo not drawn) (as salt: oxalate) [Compound 5, Endo 3-(3-[3-phenyl-2-propynyl-1-oxy]-1,2,5-thiadiazol-4-yloxy)-1-azabicyclo[2.2.1]heptane, oxalate] showed a melting point of 158 to 159 °C.

`FC(F)(F)CCCSc1nsnc1OC1CN2CCC1C2` (stereo not drawn) (as salt: oxalate) [Compound 30, Endo 3-(3-(4,4,4-trifluorobutylthio)-1,2,5-thiadiazol-4-yloxy)-1-azabicyclo-[2.2.1]heptane, oxalate] came in with a melting point of 114 to 115 °C.

The compound `CSCCOc1nsnc1OC1CN2CCC1C2` (stereo not drawn) (as salt: oxalate) [Compound 12, Endo 3-(3-methylthioethoxy-1,2,5-thiadiazol-4-yloxy)-1-azabicyclo-[2.2.1]heptane, oxalate] returned a melting point of 117 to 119 °C.

On to `FCCSc1nsnc1OC1CN2CCC1C2` (stereo not drawn) (as salt: oxalate) [Compound 34, Endo 3-(3-[2-fluoroethyl-1-thio]-1,2,5-thiadiazol-4-yloxy)-1-azabicyclo-[2.2.1]heptane, oxalate], for which the melting point lay within 131 to 133 °C.

In the case of `N#Cc1ccc(CSc2nsnc2OC2CN3CCC2C3)cc1` (stereo not drawn) (as salt: oxalate) [Compound 31, Endo 3-(3-[4-cyanobenzylthio]-1,2,5-thiadiazol-4-yloxy)-1-azabicyclo-[2.2.1]heptane, oxalate], the melting point lay within 196 to 197 °C.
